Results as given in patent publication US20080306076A1, “MODULATION OF CHEMOSENSORY RECEPTORS AND LIGANDS ASSOCIATED THEREWITH” (SENOMYX, INC., priority 2007, published 2008).

Biological target: T1, hT1R1 D192A (Homo sapiens, UniProt Q7RTX1, D192A)
T1 construct: expressed in transfected cells; host or cells: HEK293, transient transfection
T1 sequence (Q7RTX1 21-841 D192A): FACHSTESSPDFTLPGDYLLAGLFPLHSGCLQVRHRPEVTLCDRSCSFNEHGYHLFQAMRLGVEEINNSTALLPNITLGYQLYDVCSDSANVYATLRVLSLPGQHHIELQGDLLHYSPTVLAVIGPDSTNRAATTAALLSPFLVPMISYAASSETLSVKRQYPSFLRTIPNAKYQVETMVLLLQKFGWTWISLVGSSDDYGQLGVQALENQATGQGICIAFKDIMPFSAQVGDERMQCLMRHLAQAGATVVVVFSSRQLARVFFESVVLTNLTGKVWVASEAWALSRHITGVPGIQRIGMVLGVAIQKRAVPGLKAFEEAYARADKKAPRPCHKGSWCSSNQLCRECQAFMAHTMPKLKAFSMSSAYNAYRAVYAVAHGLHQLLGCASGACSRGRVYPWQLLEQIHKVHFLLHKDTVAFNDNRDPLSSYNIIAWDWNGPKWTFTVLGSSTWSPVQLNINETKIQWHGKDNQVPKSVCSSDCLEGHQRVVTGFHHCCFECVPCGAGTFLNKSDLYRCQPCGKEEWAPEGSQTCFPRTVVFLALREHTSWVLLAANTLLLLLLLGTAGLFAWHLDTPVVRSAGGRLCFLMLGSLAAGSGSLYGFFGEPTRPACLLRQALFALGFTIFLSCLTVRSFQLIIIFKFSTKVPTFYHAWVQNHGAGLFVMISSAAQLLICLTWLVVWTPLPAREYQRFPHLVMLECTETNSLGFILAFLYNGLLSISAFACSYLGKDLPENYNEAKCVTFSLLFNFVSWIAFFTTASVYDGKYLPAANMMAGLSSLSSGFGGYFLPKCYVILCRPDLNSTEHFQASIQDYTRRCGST
T1 sequence (Q923K1 21-858 partner): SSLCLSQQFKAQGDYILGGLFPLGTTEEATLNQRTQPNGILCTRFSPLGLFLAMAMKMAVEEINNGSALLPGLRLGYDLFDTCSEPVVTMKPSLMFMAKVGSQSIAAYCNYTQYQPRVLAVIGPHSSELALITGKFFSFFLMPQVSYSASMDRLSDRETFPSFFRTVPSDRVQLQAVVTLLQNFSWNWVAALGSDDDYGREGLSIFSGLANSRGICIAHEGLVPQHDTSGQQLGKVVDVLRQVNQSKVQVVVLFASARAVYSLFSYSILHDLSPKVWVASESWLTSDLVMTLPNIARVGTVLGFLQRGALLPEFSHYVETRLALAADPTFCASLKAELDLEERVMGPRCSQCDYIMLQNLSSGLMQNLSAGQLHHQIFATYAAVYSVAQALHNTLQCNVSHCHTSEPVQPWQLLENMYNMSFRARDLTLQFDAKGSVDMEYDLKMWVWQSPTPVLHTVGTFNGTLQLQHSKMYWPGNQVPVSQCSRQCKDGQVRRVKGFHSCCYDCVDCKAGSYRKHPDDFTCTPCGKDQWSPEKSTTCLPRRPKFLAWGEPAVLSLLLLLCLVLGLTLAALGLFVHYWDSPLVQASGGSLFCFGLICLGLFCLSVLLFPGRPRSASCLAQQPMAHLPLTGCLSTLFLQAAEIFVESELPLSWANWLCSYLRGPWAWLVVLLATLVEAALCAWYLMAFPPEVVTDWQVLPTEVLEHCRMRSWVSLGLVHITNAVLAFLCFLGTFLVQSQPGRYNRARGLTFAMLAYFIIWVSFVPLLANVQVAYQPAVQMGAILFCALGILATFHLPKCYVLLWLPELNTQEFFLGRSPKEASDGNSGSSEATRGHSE
Experiment: Mutagenesis study, hT1R1 mutant D192A
Format: cell-based
Details: D192 mutant, FIG. 11
Description: In order to further define the interaction sites of umami stimuli, we performed site-directed mutagenesis on human T1R1 VFT. The mutagenesis was done using the routine PCR-based method. […] were transiently transfected into HEK293 cell together with the rat T1R3 wild type cDNA, and the transfected cells were characterized using an automated FLIPR machine or a calcium imaging system as described in our previous patent applications.

## N[C@@H](CCC(=O)O)C(=O)O [L-Glu, L-glutamate]
  activity against L-Glu: significant reduced activity
